Data taken from ChEMBL document CHEMBL1126817, “Synthesis, Biological Properties, and Structure-Activity Relationships of Quinoxaline Angiotensin II Receptor Antagonists” (Bioorg Med Chem Lett, 1993).

Columns and labels:
Rattus norvegicus [1] = species: Rattus norvegicus; experiment: Tested for depression of contractions elicited by angiotensin II receptor in isolated rat aorta; format: functional
Angiotensin II receptor = biological target: T1, Angiotensin II receptor (Rattus norvegicus, UniProt P29089+P25095+P35351); experiment: Tested for binding affinity by measuring displacement of [125I]-Sar1 Ile8 angiotensin II from rat adrenal cortical membranes; format: cell membranes, Membrane
T1 sequence (P29089 whole entry): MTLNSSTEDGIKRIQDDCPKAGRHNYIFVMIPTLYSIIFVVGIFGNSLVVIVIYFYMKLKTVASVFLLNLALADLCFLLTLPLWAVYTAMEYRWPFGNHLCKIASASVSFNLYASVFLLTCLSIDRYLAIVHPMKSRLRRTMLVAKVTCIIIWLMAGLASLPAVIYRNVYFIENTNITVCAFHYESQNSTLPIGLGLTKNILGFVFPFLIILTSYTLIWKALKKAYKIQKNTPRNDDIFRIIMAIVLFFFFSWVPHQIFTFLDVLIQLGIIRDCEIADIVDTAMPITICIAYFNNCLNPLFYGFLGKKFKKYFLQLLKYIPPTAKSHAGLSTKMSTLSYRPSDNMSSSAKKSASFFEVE
T1 sequence (P25095 whole entry): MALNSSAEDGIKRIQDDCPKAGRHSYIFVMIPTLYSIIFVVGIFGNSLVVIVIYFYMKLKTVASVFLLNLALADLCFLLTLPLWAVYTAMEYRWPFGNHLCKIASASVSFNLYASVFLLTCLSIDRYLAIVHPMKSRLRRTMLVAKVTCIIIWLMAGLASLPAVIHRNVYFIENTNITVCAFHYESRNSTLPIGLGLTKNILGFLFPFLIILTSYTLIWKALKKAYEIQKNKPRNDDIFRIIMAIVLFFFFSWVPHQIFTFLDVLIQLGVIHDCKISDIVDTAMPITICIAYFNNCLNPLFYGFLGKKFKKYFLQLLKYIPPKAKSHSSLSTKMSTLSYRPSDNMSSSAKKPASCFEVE
T1 sequence (P35351 whole entry): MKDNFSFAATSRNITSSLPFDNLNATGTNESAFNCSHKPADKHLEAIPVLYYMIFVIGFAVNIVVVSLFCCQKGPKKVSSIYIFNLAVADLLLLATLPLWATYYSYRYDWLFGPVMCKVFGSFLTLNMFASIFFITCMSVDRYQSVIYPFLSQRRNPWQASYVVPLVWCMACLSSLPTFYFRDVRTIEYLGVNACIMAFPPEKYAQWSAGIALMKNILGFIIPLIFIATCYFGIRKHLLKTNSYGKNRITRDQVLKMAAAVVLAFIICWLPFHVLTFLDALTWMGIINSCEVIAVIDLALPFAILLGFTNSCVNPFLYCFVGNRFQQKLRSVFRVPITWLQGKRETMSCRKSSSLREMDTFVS

Rattus norvegicus [2] = experiment: Tested for percent inhibition of compound against angiotensin II induced pressor response after 1 umol/kg intravenous administration in rats; inactive; format: functional
Rattus norvegicus [3] = experiment: Compound was tested for inhibition of angiotensin II induced pressor response after intravenous administration in rats.; format: functional
Rattus norvegicus [4] = experiment: Tested for percent inhibition of compound against angiotensin II induced pressor response after 3 umol/kg intravenous administration at 70 min in rats; format: functional

| Ki (Angiotensin II receptor) [nM] | SMILES | Kb (Rattus norvegicus [1]) [nM] | inhibition in vivo at 1 µmol/kg (Rattus norvegicus [2]) [%] | ED50 (Rattus norvegicus [3]) [µmol/kg] | inhibition in vivo at 3 µmol/kg (Rattus norvegicus [4]) [%] |
| --- | --- | --- | --- | --- | --- |
| 7 | CCCCc1nc2ccccc2nc1Cc1ccc(-c2ccccc2-c2nn[nH]n2)cc1 | 32 |  |  |  |
| 29 | CCCCc1c(Cc2ccc(-c3ccccc3-c3nn[nH]n3)cc2)nc2ccccc2[n+]1[O-] | 52 |  |  |  |
| 6.9 | CCCCc1nc2cccc(C(=O)O)c2nc1Cc1ccc(-c2ccccc2-c2nn[nH]n2)cc1 | 0.49 | 7 |  |  |
| 2.1 | CCCCc1nc2ccccc2[n+]([O-])c1Cc1ccc(-c2ccccc2-c2nn[nH]n2)cc1 | 5.3 |  |  |  |
| 2.6 | CCCCc1c(Cc2ccc(-c3ccccc3-c3nn[nH]n3)cc2)[n+]([O-])c2ccccc2[n+]1[O-] | 2.1 |  | 1.8 | 0 |
